Assay results taken from PMC3923901 (Journal of structural and functional genomics, 2013).

Experiments:
[1] = molecular target: T1, SACOL2570 (putative galactoside O-acetyltransferase) (Staphylococcus aureus, UniProt Q5HCZ5); assay: ITC, […] stoichiometry; format: binding
[2] = molecular target: T1, SACOL2570 (putative galactoside O-acetyltransferase); assay: crystal structure; format: binding
crystal structure = molecular target: the molecule itself; assay: crystal structure

## CC(=O)SCCNC(=O)CCNC(=O)[C@H](O)C(C)(C)COP(=O)(O)OP(=O)(O)OC[C@H]1O[C@@H](n2cnc3c(N)ncnc32)[C@H](O)[C@@H]1OP(=O)(O)O [AcCoA]
[1]
  Kd: 460 ± 35 µM

## CC(C)(COP(=O)(O)OP(=O)(O)OC[C@H]1O[C@@H](n2cnc3c(N)ncnc32)[C@H](O)[C@@H]1OP(=O)(O)O)[C@@H](O)C(=O)NCCC(=O)NCCS [CoA]
[2]
  Kd: 660 ± 13 µM

B1: putative galactoside O-acetyltransferase SACOL2570 from Staphylococcus aureus subsp. COL (enzyme)
chain: MTEKEKMLAEKWYDANFDQYLINERARAKDICFELNHTRPSATNKRKELIDQLFQTTTDNVSISIPFDTDYGWNVKLGKNVYVNTNCYFMDGGQITIGDNVFIGPNCGFYTATHPLNFHHRNEGFEKAGPIHIGSNTWFGGHVAVLPGVTIGEGSVIGAGSVVTKDIPPHSLAVGNPCKVVRKIDNDLPSETLNDETIK
modifications: selenomethionine (Se-Met-SACOL2570) in the protein of the apo crystals (PDB 3FTT) only
Crystal structure
  stoichiometry N: 3
